Data on four compounds can be found in US20220313717A1, “METHODS OF TREATING CRYPTOCOCCUS INFECTIONS” (MATINAS BIOPHARMA NANOTECHNOLOGIES, INC., priority 2019, published 2022).

Data set [1] concerns Cryptococcus spp. The note with it: cited from earlier work.
A short description of data set [2]: Participant subjective impressions of cAMB versus prior IV AMB (qualitative scale, visual analog). Also noted: species or system human. The conditions noted are these: recall of prior IV therapy (6/24).
Experimental: Trial endpoints included: 1) Proportion of daily dose received and tolerated without vomiting within 30 minutes; 2) Cumulative score of nausea, vomiting, diarrhea by Common Terminology Criteria AE (CTCAE) grade scoring criteria (U.S. Department of Health and Human Services NIoH, National Cancer Institute, 2017, Common Terminology Criteria for Adverse Events (CTCAE) v 5.0); 3) Incidence of adverse events (AEs) by National Institute of Allergy and Infectious Diseases (NIAID) Division of AIDS (DAIDS) toxicity scale (version 2017) for Grade 1-5 or serious AEs (SAE) (U.S. Department of Health and Human Services NIoH, National Institute of Allergy and Infectious Diseases, Division of AIDS, 2017, Division of AIDS (DAIDS) Table for Grading the Severity of Adult and Pediatric Adverse Events, Corrected Version 2.1.); 4) Participant subjective impression(s) of cAMB by visual analog and other scales. All clinical and laboratory AEs were followed up until resolution.
Statistical analyses were primarily descriptive. The median and interquartile ranges or the number and proportions were reported where appropriate. Area under the curve (AUC) calculations were made using a linear trapezoidal method with statistical comparison by ANOVA. […]
Using a qualitative scale, we assessed participant impressions of their cAMB experience versus their prior IV AMB experience in the Phase 1A cohort.
Data set [3] deals with CYP3A4 (Homo sapiens, UniProt P08684). The conditions noted are these: cited from earlier work.
Data set [4] addresses CYP2C9 (Homo sapiens, UniProt P11712). The note with it: cited from earlier work.
The test system of data set [5] is Cryptococcus spp. The conditions noted are these: in vivo, cited from earlier work.

Chain of CYP3A4 (P08684 whole entry): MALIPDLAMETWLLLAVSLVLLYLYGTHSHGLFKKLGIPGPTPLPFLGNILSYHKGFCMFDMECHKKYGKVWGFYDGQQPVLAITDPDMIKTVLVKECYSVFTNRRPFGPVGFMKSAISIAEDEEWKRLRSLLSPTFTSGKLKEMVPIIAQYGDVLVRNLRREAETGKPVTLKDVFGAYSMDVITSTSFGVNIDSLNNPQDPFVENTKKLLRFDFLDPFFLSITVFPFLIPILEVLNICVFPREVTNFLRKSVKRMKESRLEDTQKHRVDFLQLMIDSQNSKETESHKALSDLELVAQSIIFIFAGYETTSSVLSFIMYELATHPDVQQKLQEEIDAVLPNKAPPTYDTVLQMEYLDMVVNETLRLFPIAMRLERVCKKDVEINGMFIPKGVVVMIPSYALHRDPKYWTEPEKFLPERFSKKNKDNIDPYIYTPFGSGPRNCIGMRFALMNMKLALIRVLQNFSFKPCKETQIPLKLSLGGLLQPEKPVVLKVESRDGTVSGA
Chain of CYP2C9 (P11712 whole entry): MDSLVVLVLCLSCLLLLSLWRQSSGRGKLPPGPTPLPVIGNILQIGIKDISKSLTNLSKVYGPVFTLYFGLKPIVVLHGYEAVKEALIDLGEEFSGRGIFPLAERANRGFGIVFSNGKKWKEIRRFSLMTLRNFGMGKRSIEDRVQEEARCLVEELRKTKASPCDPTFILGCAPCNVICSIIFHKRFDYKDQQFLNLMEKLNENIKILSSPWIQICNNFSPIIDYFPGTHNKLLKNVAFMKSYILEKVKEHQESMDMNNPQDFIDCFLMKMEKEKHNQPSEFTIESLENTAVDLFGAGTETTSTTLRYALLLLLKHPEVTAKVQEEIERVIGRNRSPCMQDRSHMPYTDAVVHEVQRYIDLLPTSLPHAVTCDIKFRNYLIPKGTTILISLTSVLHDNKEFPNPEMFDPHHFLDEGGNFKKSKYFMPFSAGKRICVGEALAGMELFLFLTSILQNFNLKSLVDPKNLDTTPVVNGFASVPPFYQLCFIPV

For the compound `Nc1ncccc1-c1cc(Cc2ccc(COc3ccccn3)cc2)no1` [E1210], the “in vitro activity against Cryptococcus spp.” value in data set [1] is listed as “has in vitro activity against Cryptococcus spp”.
On to `C[C@@H]1[C@H](O)[C@@H](C)/C=C/C=C/C=C/C=C/C=C/C=C/C=C/[C@H](O[C@@H]2O[C@H](C)[C@@H](O)[C@H](N)[C@@H]2O)C[C@@H]2O[C@](O)(C[C@@H](O)C[C@@H](O)[C@H](O)CC[C@@H](O)C[C@@H](O)CC(=O)O[C@H]1C)C[C@H](O)[C@H]2C(=O)O` [IV AMB, amphotericin B], for which the “participants who recalled severe nausea” value in data set [2] stood at 25%.
On to `OC(Cn1cncn1)(Cn1cncn1)c1ccc(F)cc1F` [Fluconazole, fluconazole], for which the CYP3A4 inhibition entry in data set [3] is “moderate CYP3A4 inhibitor”. Further, the CYP2C9 inhibition entry in data set [4] was “potent CYP2C9 inhibitor”.
Consider `OC(Cn1cnnn1)(c1ccc(F)cc1F)C(F)(F)c1ccc(-c2ccc(OCC(F)(F)F)cc2)cn1` (stereo not drawn) [VT-1129], for which the “fungicidal activity in mouse models of Cryptococcus spp. infection” value in data set [5] is “fungicidal”. Moreover, in data set [5] (mouse), the CNS penetration result is “good CNS penetration”.
